{"source": "patent US20230189803A1", "about": "“COMPOSITIONS CONTAINING ORGANIC ACIDS AND THEIR ESTERS TO PREVENT MOLD CONTAMINATION IN ANIMAL FEED” (KEMIN INDUSTRIES, INC., priority 2021, published 2023)", "format_in_all_cases": "cell-based", "key": {"[1]": {"system": "mold", "assay": "CO2 study in barley samples, propylene glycol esters compared with other esters (Example 10)", "conditions": "barley 19.8% moisture, 0.02-0.08 mol/kg, molar basis", "experimental": "Materials. The moisture level of barley samples was increased till 20.2%. [table] Statistical analysis. To determine significant differences in CO2-values (p<0.05), repeated measures analysis was performed by method of General Linear Models procedure (StatGraphics Centurion XV). The repeated measures statistical treatment of results was used because it can be used when change over time is assessed. Where significant differences resulted, Multiple Range Test was used to separate the means."}, "[2]": {"system": "mold", "assay": "CO2 study in barley samples, dose response of propionic acid esters as mold inhibitors (Example 9)", "conditions": "barley 20.2% moisture", "experimental": "Materials. Barley was procured from a local supplier.\nEfficacy. The moisture level of barley was determined before the start of the experiments4. The moisture level of the barley samples was adjusted to 20.2+/−0.5% by the addition of tap water. The barley samples, with the adjusted moisture content, were afterwards treated with the different extracted esters at different dose levels (0.02 mol/kg, 0.04 mol/kg, 0.06 mol/kg and 0.08 mol/kg). The untreated barley samples and samples treated with propionic acid (0.02 mol/kg-0.08 mol/kg) were included as controls. All barley samples were collected in closed plastic containers for evaluation of the CO2-production. The samples were stored at 25° C. The CO2-production in the headspace was monitored regularly during a 3-month period using the Edinburgh sensor Guardian NG. Three replicates were analyzed for each treatment.\nStatistical analysis. To determine significant differences in CO2-values values (p<0.05), repeated measures analysis was performed by method of General Linear Models procedure (StatGraphics Centurion XV). The repeated measures statistical treatment of results was used because it can be used when change over time is assessed. Where significant differences resulted, Multiple Range Test was used to separate the means."}, "[3]": {"system": "mold", "assay": "CO2 study in soybean meal samples (Example 13)", "conditions": "0.06 mol/kg, after one month of storage", "experimental": "Efficacy on soybean meal. FIGS. 18 and 19 show the CO2 production (%) of the untreated soybean meal samples compared to the soybean meal samples treated with ester 1 and propionic acid at a dosage of 0.06 and 0.08 mol/kg, respectively. In the untreated samples, a fast increase in CO2 level was measured within the first days and the CO2 value stayed around 20% during the whole course of the trial. […] Samples treated with ester 1 and propionic acid at a dosage of 0.08 mol/kg were still completely stable after 84 days."}}, "data": [{"compound": "CC(=O)O", "note": "[acetic acid]", "values": [{"measurement": "efficacy in controlling mold growth (CO2 evolution), comparative", "setting": "[1]", "value": "less effective in controlling mold growth compared to propionic acid"}]}, {"compound": "CCC(=O)O", "note": "[propionic acid]", "values": [{"measurement": "CO2 increase compared to the esters", "setting": "[2]; 0.06 mol/kg", "value": "CO2 increased faster"}, {"measurement": "storage time for which samples stay stable / after which CO2 starts increasing", "setting": "[2]; 0.08 mol/kg", "value": 40, "unit": "days"}, {"measurement": "CO2 levels during storage", "setting": "[3]", "value": "CO2 levels started to increase"}]}]}
